The values below are quoted from earlier work in patent US10098846B2, “Drug-containing particulate composition with cationic agent, associated medical devices, and methods for treatment” (Surmodics, Inc., priority 2016, dated 2018).

Consider `CO[C@H]1C[C@@H]2CC[C@@H](C)[C@@](O)(O2)C(=O)C(=O)N2CCCC[C@H]2C(=O)O[C@H]([C@H](C)C[C@@H]2CC[C@@H](O)[C@H](OC)C2)CC(=O)[C@H](C)/C=C(\C)[C@@H](O)[C@@H](OC)C(=O)[C@H](C)C[C@H](C)/C=C/C=C/C=C/1C` [Rapamycin, rapamycin], for which, under “N,N-dimethylformamide”, the “solubility in N,N-dimethylformamide” value is on record as “soluble”. Moreover, the solubility in acetone entry (acetone) was “soluble”. Further, the solubility in ether result (ether) is recorded as “soluble”. Moreover, the solubility in water result (water) was “insoluble”.
